pEC50: −log10 of the molar value. Some results are limits rather than exact numbers.

The target of one test is T1, TRα (Homo sapiens, UniProt P10827).
T1 construct: expressed in transfected cells; host or cells: HEK293
T1 sequence (P10827 1-410 isoform P10827-2): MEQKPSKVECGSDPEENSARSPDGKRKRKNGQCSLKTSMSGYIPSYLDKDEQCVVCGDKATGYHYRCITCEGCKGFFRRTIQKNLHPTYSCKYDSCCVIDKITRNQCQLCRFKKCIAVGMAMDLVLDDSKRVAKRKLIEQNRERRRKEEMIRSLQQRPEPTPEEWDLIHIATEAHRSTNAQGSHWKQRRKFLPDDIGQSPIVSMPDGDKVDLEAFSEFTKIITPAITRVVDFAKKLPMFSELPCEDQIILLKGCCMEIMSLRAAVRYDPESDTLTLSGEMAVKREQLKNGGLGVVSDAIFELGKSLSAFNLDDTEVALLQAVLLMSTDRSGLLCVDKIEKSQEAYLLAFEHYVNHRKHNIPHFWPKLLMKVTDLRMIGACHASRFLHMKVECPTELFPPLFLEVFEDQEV
The test is described as follows: TR reporter-gene assay (Gal4 DBD hybrid, luciferase), TRα. The settings on record: HEK293-derived reporter cells, 24 hr treatment; read-out: TRα EC50. Format: cell-based. An outline of the steps: (§1)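 HEK293 reporter cells expressing Gal4-DBD/TR ligand-binding hybrids driving firefly luciferase from a Gal4 UAS; cells pre-incubated 6 h, then treated 24 h at 37 °C in medium with 10% charcoal-stripped FBS (final DMSO 0.1–0.4%), in duplicate. Read-out was luminescence (RLU).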
`CONC(=O)Cc1cc(Cl)c(Cc2ccc(O)c(C(C)C)c2F)c(Cl)c1` [Compound 208, 2-(3,5-dichloro-4-(2-fluoro-4-hydroxy-3-isopropylbenzyl)phenyl)-N-methoxyacetamide]: the pEC50 (usually −log10 of the EC50, conventionally taken in molar units) was under 6.00.

Another test has as its target T2, TRβ (Homo sapiens, UniProt P10828).
T2 construct: expressed in transfected cells; host or cells: HEK293
T2 sequence (P10828 217-461 limits assumed): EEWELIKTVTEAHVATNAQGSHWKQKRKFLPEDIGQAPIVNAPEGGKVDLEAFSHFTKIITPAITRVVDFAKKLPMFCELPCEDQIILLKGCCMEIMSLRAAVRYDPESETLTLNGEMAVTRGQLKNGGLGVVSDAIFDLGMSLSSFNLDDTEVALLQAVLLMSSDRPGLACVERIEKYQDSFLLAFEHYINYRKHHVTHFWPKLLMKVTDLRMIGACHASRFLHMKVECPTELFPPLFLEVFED
The test is described as follows: TR reporter-gene assay (Gal4 DBD hybrid, luciferase), TRβ. Format: cell-based. The settings on record: HEK293-derived reporter cells, 24 hr treatment; read-out: TRβ EC50. The essentials: as §1
In the case of `CON(C)C(=O)Cc1cc(Cl)c(Cc2ccc(O)c(C(C)C)c2F)c(Cl)c1` [Compound 105, 2-(3,5-dichloro-4-(2-fluoro-4-hydroxy-3-isopropylbenzyl)phenyl)-N-methoxy-N-methylacetamide], the pEC50 was under 6.00.

As to `CONC(=O)Cc1cc(Cl)c(Cc2ccc(O)c(C(C)C)c2F)c(Cl)c1` [Compound 208, 2-(3,5-dichloro-4-(2-fluoro-4-hydroxy-3-isopropylbenzyl)phenyl)-N-methoxyacetamide], the pEC50 was 6.00 to 7.00.

Staying with this test, now noted: class symbols.
Take `CONC(=O)Cc1cc(Cl)c(Cc2ccc(O)c(C(C)C)c2F)c(Cl)c1` [Compound 208, 2-(3,5-dichloro-4-(2-fluoro-4-hydroxy-3-isopropylbenzyl)phenyl)-N-methoxyacetamide]: the “T3-SI (selectivity index, EC50 (TRα)/EC50 (TRβ))” value was “++ (3× < T3-SI ≤ 30×)”.

The next test concerns the target T3, recombinant human FAAH (rhFAAH) (Homo sapiens, UniProt O00519).
T3 construct: purchased Cayman Chemical (Ann Arbor, MI, USA)
T3 sequence (O00519 1-579): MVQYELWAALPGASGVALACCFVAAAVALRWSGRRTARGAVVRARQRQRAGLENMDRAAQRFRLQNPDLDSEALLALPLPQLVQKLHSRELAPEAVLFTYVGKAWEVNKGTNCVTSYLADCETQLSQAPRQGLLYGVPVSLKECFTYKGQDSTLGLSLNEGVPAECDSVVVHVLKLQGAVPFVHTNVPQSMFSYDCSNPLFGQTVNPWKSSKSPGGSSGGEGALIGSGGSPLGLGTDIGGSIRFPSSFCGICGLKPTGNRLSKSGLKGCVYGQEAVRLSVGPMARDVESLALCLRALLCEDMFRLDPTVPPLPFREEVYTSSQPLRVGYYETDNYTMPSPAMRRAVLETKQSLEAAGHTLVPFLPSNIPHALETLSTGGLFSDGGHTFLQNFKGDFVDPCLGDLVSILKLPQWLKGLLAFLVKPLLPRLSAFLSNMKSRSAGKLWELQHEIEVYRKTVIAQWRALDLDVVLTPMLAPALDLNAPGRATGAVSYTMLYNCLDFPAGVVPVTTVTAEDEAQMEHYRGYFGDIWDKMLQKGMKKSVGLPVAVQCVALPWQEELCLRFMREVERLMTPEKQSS
The test is described as follows: FAAH substrate evaluation (formation of acid metabolite, LC-MS/MS). The class given is biochemical. Details: key: A: ke is equal to or less than 1.0; B: ke is greater than 1.0 and less than or equal to 2.5; C: ke is greater than 2.5; NC: no conversion. The settings on record: 0.5 ng/μL rhFAAH, 1 μM test compound, pH 8.0, room temperature, 0-60 minutes. The essentials:
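Test compound at 1 μM incubated at room temperature with 0.5 ng/μL rhFAAH, 0.1% BSA in Tris-EDTA pH 8.0; parallel incubations with 1 μM PF-3845 inhibitor. Samples quenched at 0-60 min; acid metabolite quantified by LC-MS/MS, ke taken as slope of metabolite concentration versus time.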
Turning to `CON(C)C(=O)Cc1cc(Cl)c(Cc2ccc(O)c(C(C)C)c2F)c(Cl)c1` [Compound 105, 2-(3,5-dichloro-4-(2-fluoro-4-hydroxy-3-isopropylbenzyl)phenyl)-N-methoxy-N-methylacetamide], the “ke, observed rate constant for the acid metabolite formation” value (“ke, observed rate constant” for short) is on record as “NC”.

`CNC(=O)CSc1cc(Cl)c(Cc2ccc(O)c(C(C)C)c2)c(Cl)c1` [Compound 195, 2-((3,5-dichloro-4-(4-hydroxy-3-isopropylbenzyl)phenyl)thio)-N-methylacetamide]: the “ke, observed rate constant” value is “B (ke is greater than 1.0 and less than or equal to 2.5)”.

Turning to `CONC(=O)Cc1cc(Cl)c(Cc2ccc(O)c(C(C)C)c2F)c(Cl)c1` [Compound 208, 2-(3,5-dichloro-4-(2-fluoro-4-hydroxy-3-isopropylbenzyl)phenyl)-N-methoxyacetamide], the “ke, observed rate constant” value is “A (ke is equal to or less than 1.0)”.

On to `CNC(=O)CNc1cc(Cl)c(Cc2ccc(O)c(C(C)C)c2)c(C)c1F` [Compound 216, 2-((5-chloro-2-fluoro-4-(4-hydroxy-3-isopropylbenzyl)-3-methylphenyl)amino)-N-methylacetamide], for which the “ke, observed rate constant” value is listed as “A (ke is equal to or less than 1.0)”.

On to `CNC(=O)CSc1cc(C)c(Cc2ccc(O)c(C(C)C)c2)c(Cl)c1F` [Compound 218, 2-((3-chloro-2-fluoro-4-(4-hydroxy-3-isopropylbenzyl)-5-methylphenyl)thio)-N-methylacetamide], for which the “ke, observed rate constant” value is “B (ke is greater than 1.0 and less than or equal to 2.5)”.

As to `CNC(=O)CSCc1cc(Cl)c(Cc2ccc(O)c(C(C)C)c2)c(C)c1F` [Compound 219, 2-((5-chloro-2-fluoro-4-(4-hydroxy-3-isopropylbenzyl)-3-methylbenzyl)thio)-N-methylacetamide], the “ke, observed rate constant” value is “A (ke is equal to or less than 1.0)”.

`CNC(=O)CSc1cc(Cl)c(Cc2ccc(O)c(C(C)C)c2)c(C)c1F` [Compound 220, 2-((5-chloro-2-fluoro-4-(4-hydroxy-3-isopropylbenzyl)-3-methylphenyl)thio)-N-methylacetamide]: the “ke, observed rate constant” value is given as “NC”.

Regarding `Cc1cc(CSCC(=O)N2CCC2)cc(Cl)c1Cc1ccc(O)c(C(C)C)c1` [Compound 228, 1-(azetidin-1-yl)-2-((3-chloro-4-(4-hydroxy-3-isopropylbenzyl)-5-methylbenzyl)thio)ethan-1-one], the “ke, observed rate constant” value is reported as “A (ke is equal to or less than 1.0)”.

`Cc1cc(CSCC(=O)NC2CC2)cc(Cl)c1Cc1ccc(O)c(C(C)C)c1` [Compound 229, 2-((3-chloro-4-(4-hydroxy-3-isopropylbenzyl)-5-methylbenzyl)thio)-N-cyclopropylacetamide]: the “ke, observed rate constant” value is recorded as “C (ke is greater than 2.5)”.

Consider `Cc1cc(CSCC(=O)Nc2cccnn2)cc(Cl)c1Cc1ccc(O)c(C(C)C)c1` [Compound 230, 2-((3-chloro-4-(4-hydroxy-3-isopropylbenzyl)-5-methylbenzyl)thio)-N-(pyridazin-3-yl)acetamide], for which the “ke, observed rate constant” value was “B (ke is greater than 1.0 and less than or equal to 2.5)”.

For `Cc1cc(CSCC(=O)N(C)C)cc(Cl)c1Cc1ccc(O)c(C(C)C)c1` [Compound 231, 2-((3-chloro-4-(4-hydroxy-3-isopropylbenzyl)-5-methylbenzyl)thio)-N,N-dimethylacetamide], the “ke, observed rate constant” value was “A (ke is equal to or less than 1.0)”.

In the case of `Cc1cc(CSCC(N)=O)cc(Cl)c1Cc1ccc(O)c(C(C)C)c1` [Compound 232, 2-((3-chloro-4-(4-hydroxy-3-isopropylbenzyl)-5-methylbenzyl)thio)acetamide], the “ke, observed rate constant” value is given as “C (ke is greater than 2.5)”.

Turning to `CNC(=O)CSc1cc(C)c(Cc2ccc(O)c(C(C)C)c2F)c(Cl)c1` [Compound 233, 2-((3-chloro-4-(2-fluoro-4-hydroxy-3-isopropylbenzyl)-5-methylphenyl)thio)-N-methylacetamide], the “ke, observed rate constant” value is recorded as “C (ke is greater than 2.5)”.

With `Cc1cc(SCC(N)=O)cc(Cl)c1Cc1ccc(O)c(C(C)C)c1F` [Compound 234, 2-((3-chloro-4-(2-fluoro-4-hydroxy-3-isopropylbenzyl)-5-methylphenyl)thio)acetamide], the “ke, observed rate constant” value was “C (ke is greater than 2.5)”.

For the compound `CNC(=O)CNc1cc(C)c(Cc2ccc(O)c(C(C)C)c2F)c(Cl)c1` [Compound 235, 2-((3-chloro-4-(2-fluoro-4-hydroxy-3-isopropylbenzyl)-5-methylphenyl)amino)-N-methylacetamide], the “ke, observed rate constant” value is given as “A (ke is equal to or less than 1.0)”.

On to `CNC(=O)CCc1cc(C)c(Cc2ccc(O)c(C(C)C)c2F)c(Cl)c1` [Compound 236, 3-(3-chloro-4-(2-fluoro-4-hydroxy-3-isopropylbenzyl)-5-methylphenyl)-N-methylpropanamide], for which the “ke, observed rate constant” value is “B (ke is greater than 1.0 and less than or equal to 2.5)”.

For `CNC(=O)/C(C)=C/c1cc(Cl)c(Cc2ccc(O)c(C(C)C)c2)c(C)c1F` [Compound 237, (E)-3-(5-chloro-2-fluoro-4-(4-hydroxy-3-isopropylbenzyl)-3-methylphenyl)-N,2-dimethylacrylamide], the “ke, observed rate constant” value is “A (ke is equal to or less than 1.0)”.

Take `CNC(=O)/C(C)=C/c1cc(C)c(Cc2ccc(O)c(C(C)C)c2F)c(Cl)c1` [Compound 238, (E)-3-(3-chloro-4-(2-fluoro-4-hydroxy-3-isopropylbenzyl)-5-methylphenyl)-N,2-dimethylacrylamide]: the “ke, observed rate constant” value is “B (ke is greater than 1.0 and less than or equal to 2.5)”.

With `CNC(=O)/C=C/c1cc(C)c(Cc2ccc(O)c(C(C)C)c2F)c(Cl)c1` [Compound 239, (E)-3-(3-chloro-4-(2-fluoro-4-hydroxy-3-isopropylbenzyl)-5-methylphenyl)-N-methylacrylamide], the “ke, observed rate constant” value is recorded as “NC”.

As for `CNC(=O)CNc1cc(C)c(Cc2ccc(O)c(C(C)C)c2)c(Cl)c1` [Compound 240, 2-((3-chloro-4-(4-hydroxy-3-isopropylbenzyl)-5-methylphenyl)amino)-N-methylacetamide], the “ke, observed rate constant” value is “NC”.

Regarding `CNC(=O)CSCc1cc(C)c(Cc2ccc(O)c(C(C)C)c2)c(Cl)c1` [Compound 241, 2-((3-chloro-4-(4-hydroxy-3-isopropylbenzyl)-5-methylbenzyl)thio)-N-methylacetamide], the “ke, observed rate constant” value is “B (ke is greater than 1.0 and less than or equal to 2.5)”.

For the compound `CNC(=O)CSc1cc(C)c(Cc2ccc(O)c(C(C)C)c2)c(Cl)c1` [Compound 242, 2-((3-chloro-4-(4-hydroxy-3-isopropylbenzyl)-5-methylphenyl)thio)-N-methylacetamide], the “ke, observed rate constant” value was “B (ke is greater than 1.0 and less than or equal to 2.5)”.

The values are drawn from patent US12528761B2, “Thyromimetics” (Autobahn Therapeutics, Inc., priority 2020, dated 2026).
